Assay results as given in patent US7314956B2, “Multifunctional carrier for the delivery of a pharmacological agent or genetic material into a cell” (Vaxim, Inc., priority 2001, dated 2008).
Where two headings read alike, the source gives them in different places.

Columns and labels:
[1] = test system: R5 and dual-tropic (R5/X4) HIV-1 strains; settings: monocyte-derived macrophages (MDMs), microglia, primary CD4(+) T cells; cited from earlier work
[2] = biological target: CD4 receptor (Homo sapiens, UniProt P01730); settings: in vitro; cited from earlier work
[3] = in vitro; cited from earlier work
[4] = test system: rabbit anti peptide T antiserum; settings: compared with the other fractions of the same adduct, FIG. 14
Protocol: HPLC fractions of succinic acid-(Glu)n conjugated to peptide T were analyzed by ELISA (i.e., enzyme linked immunosorbent assay). HPLC fractions of conjugated peptide T were diluted (1:10) in coating buffer [1.59 g sodium carbonate (Na2CO3), 2.93 g sodium bicarbonate (NaHCO3) Dissolve in 900 ml H2O, adjust pH to 9.6 with HCl and make up to 1 L]. Control net peptide T was dissolved in coating buffer with a concentration of 5 μg/ml. 100 μl of each of two peptide T preparations was added to each well of a 96-well microtiter plate (Nunc). The plate was covered with a plate sealer and incubated at 4° C. over night. Following 3 washes with PBS-Tween [phosphate buffer saline: 8.0 g sodium chloride (NaCl), 0.2 g monobasic potassium phosphate (KH2PO4), 1.15 g dibasic sodium phosphate (Na2HPO4), 0.2 g potassium chloride (KCl), Dissolve in 900 ml H2O, adjust pH to 7.4 with NaOH or HCl and make up to 1 L, PBS+0.5 ml Tween 20 per liter]. 100 μl of diluted rabbit anti peptide T antiserum (1:250, in assay diluent, 0.1% BSA and 0.1% sodium azide (NaN3) in PBS) was added to each well. The plate was sealed and incubated for 1 hour at room temperature. Following 5 washes, each well was added with 100 μl of diluted goat anti rabbit IgG alkaline phosphatase conjugate (KPL, 1:1000 dilution in assay diluent). The plate was sealed and incubated for 30 min. […] Optical density (OD) was then read at 405 nm.

[5] = test system: Balb/c mice; settings: i.p. 0.5 mg per immunization, day 0, 8 and 21, Freund's adjuvant, antiserum 1:100, FIG. 15
Protocol: Balb/c mice were immunized intraperitoneally with succinic acid-(glu)n-Peptide T at 0.5 mg per immunization and per animal. The antigen complex was administered with complete Freund's adjuvant (first injection) and with incomplete Freund's adjuvant for booster injections. Mice were immunized 3 times at day 0, day 8 and day 21. Mice were bled via tail vein and 15 μl of blood collected by a capillary tube was transferred into 135 μl PBS in a 12×75 tissue culture tube. Diluted mouse sera were collected after centrifugation for 10 min.
A polystyrene 96-well plate (Nunc) was coated with free peptide T at 10 μg/ml in coating (pH 9.6) overnight at 4° C. The plate was washed 3 times with wash buffer. Afterwards, 100 μl of diluted (1:100 in assay diluent) mouse antiserum from each mouse was then added to each well (each serum sample was assayed in duplicate) and incubated for 2 hours at room temperature. The plates were then washed 5 times with wash buffer. Goat anti-mouse IgG conjugated to alkaline phosphate (KPL) was diluted 1:1000 in PBS with 1% bovine serum albumin, added to the wells, and incubated for 30 min at room temperature followed by six washes with wash buffer. Substrate solution (p-Nitrophenyl phosphate, 2 mg/ml in substrate buffer) was then added. Absorbance was then measured using a microplate reader at 405 nm.

Substance	replication of HIV-1 strains [1]	binding of isolated gp120 and HIV-1 to the CD4 receptor [2]	chemotactic activity [3]	immunoreactivity (optical density at 405 nm) ([4]; HPLC Fraction 3 (highest retention time))	immune response (anti-peptide T antibodies, ELISA OD at 405 nm) [5]	immunoreactivity (optical density at 405 nm) ([4]; HPLC Fraction 2 (highest retention time))
D-Ala-Ser-Thr-Thr-Thr-Asn-Tyr-Thr-NH2 [Peptide T]	inhibits replication	inhibition of the binding	chemotactic activity			
Succinic Acid-(Glu)2-(Glu)4-(Glu)8-(Peptide T)16 [Shell 3]				highest immunoreactivity	some mice show greater immune response	
Succinic Acid-(Glu)2-(Glu)4-(Peptide T)8 [Shell 2]					some mice show greater immune response	highest immunoreactivity
